From US8802597B2, “Herbicidal pyrimidines” (E I du Pont de Nemours and Company, priority 2003, dated 2014)
Where two headings read alike, the source gives them in different places.

Key:
Assay type in all cases: in vivo
[1] = tested on: barnyardgrass (Echinochloa crus-galli); assay: Test A pre/postemergence
Outline: (§1)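 Ratings: 0 = no effect, 100 = complete control, assessed visually about ten days post-treatment in a greenhouse. Applications: soil-directed preemergence spray and postemergence spray on 1- to 2-leaf plants, both using a surfactant-containing non-phytotoxic solvent formulation.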

[2] = tested on: crabgrass (Digitaria sanguinalis); assay: Test A pre/postemergence
Outline: as §1

[3] = tested on: giant foxtail (Setaria faberi); assay: Test A pre/postemergence
Outline: as §1

[4] = tested on: morningglory (Ipomoea spp.); assay: Test A pre/postemergence
Outline: as §1

[5] = tested on: redroot pigweed (Amaranthus retroflexus); assay: Test A pre/postemergence
Outline: as §1

[6] = tested on: velvetleaf (Abutilon theophrasti); assay: Test A pre/postemergence
Outline: as §1

[7] = tested on: cocklebur (Xanthium strumarium); assay: Test C pre/postemergence; conditions: for Plant response rating, Cocklebur: Preemergence
Outline: (§2)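 Injury scored visually 12–14 days after application on 0–100 scale (100 = complete control), relative to controls. Compounds, formulated with surfactant in non-phytotoxic solvent, applied to soil at planting (pre) or to 1- to 4-leaf plants 2–18 cm tall (post) in greenhouse.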

[8] = tested on: common ragweed (Ambrosia elatior); assay: Test C pre/postemergence; conditions: for Plant response rating, Ragweed: Preemergence, scale 0 to 100, 0 no effect, 100 complete control
Outline: as §2

corn (Zea mays) = assay: Test C pre/postemergence; conditions: for Plant response rating, Corn: Preemergence
Outline: as §2

[9] = tested on: lambsquarters (Chenopodium album); assay: Test C pre/postemergence; conditions: for pest or weed control at 16 g/ha: 16 g ai/ha; for pest or weed control at 62 g/ha: 62 g ai/ha
Outline: as §2

[10] = tested on: chickweed (Stellaria media); assay: Test C postemergence; conditions: Stellaria media, post-emergence
Outline: as §2

[11] = Postemergence, 125 g ai/ha, 0 to 100 scale (0 no effect, 100 complete control)
[12] = Postemergence, 500 g ai/ha, 0 to 100 scale (0 no effect, 100 complete control)
[13] = Preemergence, 125 g ai/ha, 0 to 100 scale where 0 is no effect and 100 is complete control, approximately ten days
[14] = Preemergence, 500 g ai/ha, 0 to 100 scale where 0 is no effect and 100 is complete control, approximately ten days
[15] = 16 g ai/ha, scale 0 to 100, 0 no effect, 100 complete control
[16] = 31 g ai/ha, scale 0 to 100, 0 no effect, 100 complete control
[17] = 62 g ai/ha, scale 0 to 100, 0 no effect, 100 complete control
[18] = Chenopodium album, post-emergence, Postemergence, read-out: Plant response rating (scale of 0 to 100), Lambsquarters
[19] = Chenopodium album, pre-emergence, Preemergence, scale 0 to 100, 0 no effect, 100 complete control, read-out: Plant response rating, Lambsquarters

Nc1nc(C2CC2)nc(C(=O)O)c1Cl [Compound 135, 6-amino-5-chloro-2-cyclopropyl-4-pyrimidinecarboxylic acid]
Plant response rating, Barnyardgrass [1, 11]: 75 | Plant response rating, Barnyardgrass [1, 12]: 90 | Plant response rating, Barnyardgrass [1, 13]: 65 | Plant response rating, Barnyardgrass [1, 14]: 90 | Plant response rating, Crabgrass [2, 11]: 65 | Plant response rating, Crabgrass [2, 12]: 65 | Plant response rating, Crabgrass [2, 13]: 75 | Plant response rating, Crabgrass [2, 14]: 95 | Plant response rating, Foxtail, Giant [3, 11]: 75 | Plant response rating, Foxtail, Giant [3, 12]: 80 | Plant response rating, Foxtail, Giant [3, 13]: 30 | Plant response rating, Foxtail, Giant [3, 14]: 85 | Plant response rating, Morningglory [4, 11]: 90 | Plant response rating, Morningglory [4, 12]: 100 | Plant response rating, Morningglory [4, 13]: 95 | Plant response rating, Morningglory [4, 14]: 100 | Plant response rating, Pigweed [5, 11]: 90 | Plant response rating, Pigweed [5, 12]: 95 | Plant response rating, Pigweed [5, 13]: 85 | Plant response rating, Pigweed [5, 14]: 100 | Plant response rating, Velvetleaf [6, 11]: 85 | Plant response rating, Velvetleaf [6, 12]: 100 | Plant response rating, Velvetleaf [6, 13]: 80 | Plant response rating, Velvetleaf [6, 14]: 100 | Plant response rating, Cocklebur [7, 15]: 85 | Plant response rating, Cocklebur [7, 16]: 95 | Plant response rating, Cocklebur [7, 17]: 95 | Plant response rating, Cocklebur ([7]; 125 g ai/ha, scale 0 to 100): 100 | pest or weed control at 16 g/ha ([7]; Xanthium strumarium, post-emergence, Postemergence, 16 g ai/ha, read-out: Plant response rating (scale of 0 to 100), Cocklebur): 90% | pest or weed control at 31 g/ha ([7]; Xanthium strumarium, post-emergence, Postemergence, 31 g ai/ha, read-out: Plant response rating (scale of 0 to 100), Cocklebur): 100% | pest or weed control at 125 g/ha ([7]; Xanthium strumarium, post-emergence, Postemergence, 125 g ai/ha, scale 0 to 100 (0 no effect, 100 complete control), read-out: Cocklebur plant response rating): 100% | pest or weed control at 16 g/ha ([8]; Ambrosia artemisiifolia, post-emergence, Postemergence, 16 g ai/ha, read-out: Plant response rating (scale of 0 to 100), Ragweed): 75% | pest or weed control at 31 g/ha ([8]; Ambrosia artemisiifolia, post-emergence, Postemergence, 31 g ai/ha, read-out: Plant response rating (scale of 0 to 100), Ragweed): 80% | pest or weed control at 62 g/ha ([8]; Ambrosia artemisiifolia, post-emergence, Postemergence, 62 g ai/ha, read-out: Plant response rating (scale of 0 to 100), Ragweed): 85% | pest or weed control at 125 g/ha ([8]; Ambrosia artemisiifolia, post-emergence, Postemergence, 125 g ai/ha, scale 0 to 100 (0 no effect, 100 complete control), read-out: Ragweed plant response rating): 95% | Plant response rating, Ragweed ([8]; 16 g ai/ha): 5 | Plant response rating, Ragweed ([8]; 62 g ai/ha): 35 | Plant response rating, Ragweed [8]: 70 | Plant response rating, Corn (corn (Zea mays); [15]): 5 | Plant response rating, Corn (corn (Zea mays); [16]): 30 | Plant response rating, Corn (corn (Zea mays); [17]): 30 | Plant response rating, Corn (corn (Zea mays); 125 g ai/ha, scale 0 to 100): 70 | Corn plant response rating (crop injury, 0 = no effect, 100 = complete kill) at 16 g/ha (corn (Zea mays); Zea mays, post-emergence, Postemergence, 16 g ai/ha, read-out: Plant response rating (scale of 0 to 100), Corn): 5% | Corn plant response rating (crop injury, 0 = no effect, 100 = complete kill) at 31 g/ha (corn (Zea mays); Zea mays, post-emergence, Postemergence, 31 g ai/ha, read-out: Plant response rating (scale of 0 to 100), Corn): 10% | Corn plant response rating (crop injury, 0 = no effect, 100 = complete kill) at 62 g/ha (corn (Zea mays); Zea mays, post-emergence, Postemergence, 62 g ai/ha, read-out: Plant response rating (scale of 0 to 100), Corn): 20% | Corn plant response rating (crop injury, 0 = no effect, 100 = complete kill) at 125 g/ha (corn (Zea mays); Zea mays, post-emergence, Postemergence, 125 g ai/ha, scale 0 to 100 (0 no effect, 100 complete control), read-out: Corn plant response rating): 35% | pest or weed control at 16 g/ha [9, 18]: 60% | pest or weed control at 31 g/ha ([9]; Chenopodium album, post-emergence, Postemergence, 31 g ai/ha, read-out: Plant response rating (scale of 0 to 100), Lambsquarters): 90% | pest or weed control at 62 g/ha [9, 18]: 90% | pest or weed control at 125 g/ha ([9]; Chenopodium album, post-emergence, Postemergence, 125 g ai/ha, scale 0 to 100 (0 no effect, 100 complete control), read-out: Lambsquarters plant response rating): 95% | pest or weed control at 16 g/ha [9, 19]: 0% | pest or weed control at 62 g/ha [9, 19]: 70% | Plant response rating, Lambsquarters ([9]; Preemergence, 31 g ai/ha, scale 0 to 100, 0 no effect, 100 complete control): 70 | Plant response rating, Lambsquarters ([9]; Preemergence, 125 g ai/ha, scale 0 to 100): 90 | pest or weed control at 16 g/ha ([10]; 16 g ai/ha, read-out: Plant response rating (scale of 0 to 100), Chickweed): 0% | pest or weed control at 31 g/ha ([10]; 31 g ai/ha, read-out: Plant response rating (scale of 0 to 100), Chickweed): 15% | pest or weed control at 62 g/ha ([10]; 62 g ai/ha, read-out: Plant response rating (scale of 0 to 100), Chickweed): 25% | pest or weed control at 125 g/ha ([10]; 125 g ai/ha, scale 0 to 100 (0 no effect, 100 complete control), read-out: Chickweed plant response rating): 85%
